Experimental findings from PMC6268315, “Investigating the Spectrum of Biological Activity of Substituted Quinoline-2-Carboxamides and Their Isosteres ^†” (Molecules, 2012) are described below.

Values after ≈ are worked out from the molar mass of the structure shown.

For the test, the system named is Mycobacterium tuberculosis CUH071. In words: In vitro antimycobacterial evaluation (alamarBlue). Format: cell-based. To be noted: 168 h, clinical isolate CUH071 with partial INH and PZA resistance, 7 days, read-out: MIC/IC90 M. tuberculosis. A general note: Resazurin is reduced to fluorescent resorufin, in cell work by metabolically active cells.
`CC(C)NC(=O)c1ccc2ccccc2n1` [Compound 1, N-Isopropylquinoline-2-carboxamide]: the MIC came to 280 µM (≈ 60 µg/mL).
Take `CCCCCCCCCCCCNC(=O)c1ccc2ccccc2n1` [Compound 2, N-Dodecylquinoline-2-carboxamide]: the MIC was 367 µM (≈ 125 µg/mL).
Then `O=C(c1ccc2ccccc2n1)N1CCCC1` [Compound 3, 2-(Pyrrolidin-1-ylcarbonyl)quinoline], with 552 µM (≈ 125 µg/mL); and `O=C(NC1CCCC1)c1ccc2ccccc2n1` [Compound 5, N-Cyclopentylquinoline-2-carboxamide], with 491 µM (≈ 118 µg/mL); and `O=C(NC1CCCCC1)c1ccc2ccccc2n1` [Compound 6, N-Cyclohexylquinoline-2-carboxamide], with 125 µM (≈ 31.8 µg/mL).
Regarding `O=C(NC1CCCCCC1)c1ccc2ccccc2n1` [Compound 7, N-Cycloheptylquinoline-2-carboxamide], the MIC came to 111 µM (≈ 29.8 µg/mL).
For `O=C(NCCc1ccccc1)c1ccc2ccccc2n1` [Compound 11, N-(2-Phenylethyl)quinoline-2-carboxamide] the value was 109 µM (≈ 30.1 µg/mL).
Then `Cc1cccc(NC(=O)c2ccc3ccccc3n2)c1` [Compound 14b, N-(3-Methylphenyl)quinoline-2-carboxamide], with 469 µM (≈ 123 µg/mL); and `O=C(c1ccc2ccccc2c1)N1CCCC1` [Compound 22, 1-(2-Naphthoyl)pyrrolidine], with 554 µM (≈ 125 µg/mL); and `COc1ccccc1NC(=O)c1ccc2ccccc2c1` [Compound 32a, N-(2-Methoxyphenyl)-2-naphthamide], with 901 µM (≈ 250 µg/mL).
For `NNC(=O)c1ccncc1` [INH, isoniazid, reference compound] the value was more than 729 µM; for `NC(=O)c1cnccn1` [PZA, pyrazinamide, reference compound], more than 812 µM.
